Reference: patent US7078059B2, “Treatment of bone diseases” (Shire Holdings AG, priority 2000, dated 2006)
Values joined by “and” are separate entries in the source; they are usually repeats but may differ in a detail not shown here. Equal entries are not always repeated. “Also recorded” adds a separate entry of the source. Where two headings read alike, the source gives them in different places.

Legend:
mature osteoblasts = test: In vitro bone formation assay (calcium deposition into bone nodules); format: cell-based, mouse; details: LA number = ng/ml lanthanum; for Effect on bone formation activity of mature osteoblasts, in words: lanthanum (III) / lanthanum (III) ion = all concentrations tested, 100 to 15,000 ng/ml, 17-estradiol 10^−10M; for Calcium deposition, Mean ± SD / Calcium deposition, replicates 1-6 / Calcium deposition, replicates 1-4 / Calcium deposition, replicates 1-8: calcium released from bone nodules after HCl extraction; for Calcium deposition, Mean ± SD / Calcium deposition, replicates 1-6 / Calcium deposition, replicates 1-4 / Calcium deposition, replicates 1-8 / Combined results on bone formation activity of mature osteoblasts (calcium released), Mean ± SD: Control = Baseline+10^−10M 17β-estradiol; for Combined results on bone formation activity of mature osteoblasts (calcium released), Mean ± SD: tables 13 and 14 combined, number 14
Protocol: The activity of mature osteoblasts can be determined by quantifying their ability to form mineralized bone matrix. This is done by demineralizing the formed bone matrix, and determining the amount of calcium released. Thus, this culture system fulfills requirements of an in vitro model useful for studying the bone formation activity of mature osteoblasts. […] At the end of the culture, the amount of calcium deposited during the culture period was determined, and the amount of bone formation (calcium deposition) calculated. […] Extracts of 50 μl were complexed with 1 ml determined o-cresol-phthalein-complexon. The colorimetric reaction was determined at 570 nm in a spectrophotometer. Absolute calcium concentrations were determined by comparison with a calibrated standard provided by the vendor. In this study, the effect of lanthanum carbonate on bone formation was tested. […] The amount of bone formation was determined by measuring the amount of calcium deposited into bone nodules formed by mature osteoblasts. The results are shown as the amount of calcium released (mmol/L) from the bone nodules after HCl extraction. The baseline values are too low to show the results using relative amounts as was done in the other assays.

[1] = test system: mouse bone marrow derived osteoprogenitor cells; test: In vitro osteoblast differentiation assay (cellular alkaline phosphatase); format: cell-based; details: LA number = ng/ml lanthanum; for Effect on osteoblast differentiation, in words: lanthanum (III) ion = 100-15000 ng/ml, 17-estradiol 10^−10 M; for Relative specific activities of intracellular alkaline phosphatase, Mean ± SD / Relative specific activities of intracellular alkaline phosphatase, replicates 1-8 / Relative specific activities of intracellular alkaline phosphatase, replicates 1-4 / Relative specific activities or intracellular alkaline phosphatase, Mean ± SD / Relative specific activities or intracellular alkaline phosphatase, replicates 1-6: relative to mean of baseline group, 8 days; for Relative specific activities of intracellular alkaline phosphatase, Mean ± SD / Relative specific activities of intracellular alkaline phosphatase, replicates 1-8 / Relative specific activities of intracellular alkaline phosphatase, replicates 1-4 / Relative specific activities or intracellular alkaline phosphatase, Mean ± SD / Relative specific activities or intracellular alkaline phosphatase, replicates 1-6 / Combined results on osteoblast differentiation (relative specific ALP activity), Mean ± SD: Control = Baseline+10^−10 M 17-estradiol; for Relative specific activities or intracellular alkaline phosphatase, Mean ± SD / Relative specific activities or intracellular alkaline phosphatase, replicates 1-6: second osteoblast differentiation assay; for Combined results on osteoblast differentiation (relative specific ALP activity), Mean ± SD: tables 8-10 combined, number 18
Text: We have established a culture model in which mouse bone marrow derived osteoprogenitor cells first proliferate and then differentiate to osteoblasts capable of forming mineralized bone nodules (Qu et al. 1998, Qu et al. 1999). We confirmed this by following the expression of several markers of the osteoblastic phenotype and by studying the morphology of cultures at light and electron microscopic level. […] Thus, this culture system fulfills requirements of an in vitro model useful for studying differentiation of osteoprogenitor cells into bone synthesizing osteoblasts. […] Animals were killed by cervical dislocation. Both femora were removed and the soft tissues were detached aseptically. Metaphyses from both ends were cut off and bone marrow cells were collected by flushing the diaphysis with culture medium: phenol red-free-α-modified essential medium (α-MEM (Gibco BRL, Paisley, UK)). […] The cells were cultured for 6 days and half of the media […] days. […] Cells were washed with warm PBS and adherent cells were detached using trypsin-EDTA. […] The test substances were added at the beginning of the secondary culture without estrogen, and every time when the medium was changed. The number of osteoblasts formed was determined by measuring cellular alkaline phosphatase (ALP) activity in the culture. […] Louis, Mo., USA), and overnight freezing. ALP activity was determined colorimetrically using p-nitrophenylphosphate as substrate at pH 9.7 and determining the optical density at 405 nm. In parallel, protein contents of the wells were determined by the BIO-RAD protein assay, and the specific ALP activity is expressed as units/mg protein. […] Osteoblast differentiation was determined by measuring cellular alkaline phosphatase (ALP) activities and total protein amounts from cell lysates. The ALP activities were divided with the corresponding protein amounts to obtain specific activities of ALP. The results are shown as relative specific activities obtained by dividing each individual value with the mean value of the baseline group.

[2] = test system: osteoclast precursors in mouse bone marrow; details: for Relative TRAP 5b activities, Mean ± SD: relative to mean of baseline group; for Combined results on osteoclast differentiation (relative TRAP 5b activity), Mean ± SD: tables 4-6 combined, number 18 (LA 100) or 12
Text: A method known as mouse bone marrow culture system is the one most widely used to study osteoclast differentiation. Originally, this method was developed by Takahashi et al. (1988a). Osteoclast precursors in mouse bone marrow can be induced to form multinucleated osteoclast-like cells (MNC) in the presence of either an active metabolite of vitamin D3 (1,25(OH)2D3) or parathyroid hormone (PTH). […] They form pits on bone or dentine slices (Takahashi et al. 1988a, Hattersley and Chambers 1989, Shinar et al. 1990); they express high levels of tartrate-resistant acid phosphatase (TRAP) and calcitonin receptors (Takahashi et al. 1988b, Shinar et al. 1990); and they respond to calcitonin (Takahashi et al. 1988a) and prostaglandin E2 (Collins and Chambers 1992). Thus, the method is an ideal one with which to study both stimulators and inhibitors of osteoclast differentiation.
In the original culture system, the osteoclast formation was determined after an 8-day culture. In bone marrow, both non-adherent osteoclast precursors and stromal cells are present, the latter of which are needed to support osteoclast formation. The number of osteoclasts formed is generally determined by counting the number of TRAP-positive MNC containing at least three nuclei (Takahashi et al. 1988a).
We have modified the original assay so that we culture 1×10^6 mouse marrow cells/ml for 6 days. […] Instead of counting of the number of differentiated osteoclasts formed, we measured the amount of TRAP liberated from osteoclasts into the culture medium using a fast, simple TRAP immunoassay (Halleen et al. 1999) presentation in the Annual Meeting of the American Society for Bone and Mineral Research, Sep. 30-Oct. 4, 1999, in St. Louis, Mo., USA.
8-10-week old mice were killed with CO2. Tibia and femora were dissected free from adhering soft tissues. The bone ends were cut off with a scalpel and the marrow was flushed with α-Minimal Essential Medium (α-MEM, Gibco BRL, Paisley, UK) supplemented with 100 IU/ml penicillin and 100 μg/ml streptomycin. A 10 ml syringe with a 27 gauge needle was used for flushing. Cells were centrifuged at 600×G for 10 minutes and the cell pellet was resuspended in -MEM containing 10% fetal calf serum. Cells were allowed to attach to plastic for 2 h at 37° C. in a 5% CO2 incubator to allow removal of monocytes and macrophages. Nonadherent cells were duly removed, and the […] bone marrow cells were cultured in 24-well plates (1×10^6 cells/well=1 ml) for 6 days. Half of the media were changed at day 3 and the treatments replaced. At the end of the culture, the plates were fixed with 2% paraformaldehyde in PBS for 20 minutes. Osteoclast formation was determined by measuring TRAP activity from the culture media using the novel TRAP immunoassay (vide infra), where we use a polyclonal TRAP antiserum prepared in rabbits against purified human bone TRAP. The TRAP antibody was bound to anti-rabbit IgG coated microtiter wells (Gibco BRL, Paisley, UK), and medium TRAP was then bound to the antibody. The activity of bound TRAP was measured in sodium acetate buffer using pNPP as substrate.
In this study, the effect of the lanthanum (III) ion on osteoclast differentiation in the presence of 1,25-dihydroxyvitamin D3 was tested. The following sample groups were included: • Baseline (including vehicle) • Control (Baseline without 1,25-dihydroxyvitamin D3) • Baseline+100 ng/ml lanthanum • Baseline+500 ng/ml lanthanum • Baseline+1000 ng/ml lanthanum • Baseline+5000 ng/ml lanthanum • Baseline+15000 ng/ml lanthanum
Six replicates were included in each group, and the test was performed twice. Baseline without 1,25-dihydroxyvitamin D3 was used as a control to show the test system allows inhibition of osteoclast differentiation to be detected.

[3] = preliminary bone formation assay
[4] = first osteoblast differentiation assay
[5] = preliminary osteoblast differentiation assay
[6] = first osteoclast differentiation assay, with 1,25-dihydroxyvitamin D3, 6 days, LA number = ng/ml lanthanum
[7] = second osteoclast differentiation assay, with 1,25-dihydroxyvitamin D3, 6 days, LA number = ng/ml lanthanum

| Structure (SMILES) | Effect on bone formation activity of mature osteoblasts, in words (mature osteoblasts) | Calcium deposition, Mean ± SD (mature osteoblasts; first bone formation assay) | Calcium deposition, replicates 1-6 (mature osteoblasts; first bone formation assay) | Calcium deposition, Mean ± SD (mature osteoblasts; [3]) | Calcium deposition, replicates 1-4 (mature osteoblasts; [3]) | Calcium deposition, Mean ± SD (mature osteoblasts; second bone formation assay) | Calcium deposition, replicates 1-8 (mature osteoblasts; second bone formation assay) | Combined results on bone formation activity of mature osteoblasts (calcium released), Mean ± SD (mature osteoblasts) | Effect on osteoblast differentiation, in words [1] | Relative specific activities of intracellular alkaline phosphatase, Mean ± SD [1, 4] | Relative specific activities of intracellular alkaline phosphatase, replicates 1-8 [1, 4] | Relative specific activities of intracellular alkaline phosphatase, Mean ± SD [1, 5] | Relative specific activities of intracellular alkaline phosphatase, replicates 1-4 [1, 5] | Relative specific activities or intracellular alkaline phosphatase, Mean ± SD [1] | Relative specific activities or intracellular alkaline phosphatase, replicates 1-6 [1] | Combined results on osteoblast differentiation (relative specific ALP activity), Mean ± SD [1] | Relative TRAP 5b activities, Mean ± SD [2, 6] | Relative TRAP 5b activities, Mean ± SD [2, 7] | Combined results on osteoclast differentiation (relative TRAP 5b activity), Mean ± SD ([2]; LA number = ng/ml lanthanum) | Relative TRAP 5b activities, Mean ± SD ([2]; third osteoclast differentiation assay with LA 100 (100 ng/ml lanthanum)) |
| --- | --- | --- | --- | --- | --- | --- | --- | --- | --- | --- | --- | --- | --- | --- | --- | --- | --- | --- | --- | --- |
| O.O.O.O.O=C([O-])[O-].O=C([O-])[O-].O=C([O-])[O-].[La+3].[La+3] [LA 500, lanthanum carbonate tetrahydrate] | stimulate bone formation | 0.77 ± 0.54 mmol/L | 0.44 mmol/L and 0.15 mmol/L and 1.32 mmol/L and 0.27 mmol/L and 1.31 mmol/L and 1.10 mmol/L | 0.02 ± 0.05 mmol/L | 0 mmol/L (3×) and 0.09 mmol/L | 0.62 ± 0.61 mmol/L | 0 mmol/L and 0.02 mmol/L and 0.46 mmol/L and 1.17 mmol/L | 0.68 ± 0.56 mmol/L | No significant response; also recorded: do not decrease the formulation of osteoblasts | 0.90 ± 0.14 | 0.95 and 0.96 and 0.62 | 1.01 ± 0.07 | 0.96 and 0.98 and 0.99 and 1.11 | 0.93 ± 0.14 | 0.88 and 0.89 and 1.10 and 1.09 and 0.75 and 0.90 | 0.94 ± 0.13 | 0.71 ± 0.22 | 1.07 ± 0.24 | 0.89 ± 0.29 |  |
| O.O.O.O.O=C([O-])[O-].O=C([O-])[O-].O=C([O-])[O-].[La+3].[La+3] [LA 100, lanthanum carbonate tetrahydrate] | activate both bone formation and osteoblast differentiation | 0.11 ± 0.11 mmol/L | 0.04 mmol/L and 0.17 mmol/L and 0.01 mmol/L and 0.27 mmol/L and 0 mmol/L and 0.14 mmol/L | 0.00 ± 0.00 mmol/L | 0 mmol/L | 0.08 ± 0.11 mmol/L | 0 mmol/L (4×) and 0.28 mmol/L and 0.14 mmol/L | 0.09 ± 0.10 mmol/L | activated osteoblast differentiation significantly; also recorded: activate both bone formation and osteoblast differentiation | 1.05 ± 0.17 | 0.95 and 1.04 and 0.98 | 1.15 ± 0.13 | 0.98 and 1.29 and 1.19 and 1.12 | 1.14 ± 0.22 | 0.91 and 0.94 and 1.34 and 1.20 and 1.00 and 1.43 | 1.10 ± 0.18 (*) | 0.87 ± 0.33 | 0.54 ± 0.15(**) | 0.70 ± 0.27 (**) | 0.69 ± 0.21(*) |
| O.O.O.O.O=C([O-])[O-].O=C([O-])[O-].O=C([O-])[O-].[La+3].[La+3] [LA 15000, lanthanum carbonate tetrahydrate] | best responses | 1.29 ± 0.21 mmol/L | 1.46 mmol/L and 1.42 mmol/L and 1.56 mmol/L and 1.11 mmol/L (2×) and 1.08 mmol/L | 0.89 ± 0.66 mmol/L | 1.48 mmol/L and 0.16 mmol/L and 0.50 mmol/L and 1.41 mmol/L | 1.40 ± 0.21(* mmol/L | 1.62 mmol/L and 1.18 mmol/L and 1.21 mmol/L | 1.35 ± 0.21 mmol/L | inhibited | 0.40 ± 0.07(***) | 0.39 and 0.35 and 0.43 | 0.50 ± 0.03(***) | 0.51 and 0.49 and 0.47 and 0.54 | 0.28 ± 0.07(***) | 0.27 and 0.13 and 0.33 and 0.32 and 0.29 and 0.31 | 0.38 ± 0.11 (***) | 0.36 ± 0.27(*) | 0.25 ± 0.07(***) | 0.30 ± 0.19 (***) |  |
